Data reported in US11427869B2, “T cell balance gene expression, compositions of matters and methods of use thereof” (THE BROAD INSTITUTE, INC., priority 2015, dated 2022).

Target: T1, Rorγt (Mus musculus, UniProt P51450)
T1 construct: expressed in transfected cells; host or cells: EL4 cells stably transfected with Rorγt vector
T1 sequence (P51450 1-495 isoform P51450-2): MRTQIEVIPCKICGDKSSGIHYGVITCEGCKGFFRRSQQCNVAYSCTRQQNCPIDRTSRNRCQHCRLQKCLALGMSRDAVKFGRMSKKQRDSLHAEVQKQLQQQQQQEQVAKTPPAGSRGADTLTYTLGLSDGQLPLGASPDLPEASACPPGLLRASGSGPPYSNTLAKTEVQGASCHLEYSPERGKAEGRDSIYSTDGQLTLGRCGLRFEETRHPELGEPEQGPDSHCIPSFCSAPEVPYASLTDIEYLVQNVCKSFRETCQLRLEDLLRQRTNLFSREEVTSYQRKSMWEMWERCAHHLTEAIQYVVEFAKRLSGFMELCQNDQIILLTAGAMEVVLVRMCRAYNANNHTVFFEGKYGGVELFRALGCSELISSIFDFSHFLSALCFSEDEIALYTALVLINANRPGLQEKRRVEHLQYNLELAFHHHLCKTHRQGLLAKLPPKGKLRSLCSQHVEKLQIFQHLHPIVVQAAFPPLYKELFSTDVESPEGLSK
Assay: Dual luciferase reporter assay of Rorγt transcriptional activity in EL4 cells
Assay type: cell-based
Settings: EL4 cells, CD5L-RV 100 ng; ligand 5, 0.5 or 0.05 uM
Protocol: Cells and supernatant were harvested at 96 hours and subjected to MS/LC. Three independent mouse experiments were performed. […] All ChIP and luciferase assay are representative of at least 3 independent experiments.
Three independent experiments were performed.

Compound: CC(CO)CCC[C@@H](C)[C@H]1CC[C@H]2[C@@H]3[C@@H](O)C=C4C[C@@H](O)CC[C@]4(C)[C@H]3CC[C@]12C (stereo partly drawn) [7β, 27-dihydroxycholesterol]
- Il17 reporter transcription (luciferase): rescued the CD5L-driven suppression of Il17 reporter transcription
